Measurements as given in patent US20050176655A1, “Novel macrolide derivatives havaing effect of potentiating antifungal activity” (priority 2002, published 2005).

Legend:
Experiment in all cases: Paper disk method, enhancing action for activities of azole antifungal agents
Assay type in all cases: cell-based
[1] = system: Aspergillus niger ATCC 6275; details: 48 hours; for Inhibition activity (inhibition ring mm) A. niger ATCC 6275 GYF / Transparency of the inhibition ring A. niger ATCC 6275 GYF: fluconazole 10 μg/ml; for Inhibition activity (inhibition ring mm) A. niger ATCC 6275 GYM / Transparency of the inhibition ring A. niger ATCC 6275 GYM: miconazole 0.1 μg/ml; for Inhibition activity (inhibition ring mm) A. niger ATCC 6275 GY / Transparency of the inhibition ring A. niger ATCC 6275 GY: GY medium (control, no azole)
Procedure, shortened: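 Paper-disk assay on A. niger ATCC 6275 spores (0.2%) seeded on GY agar pH 6.0. After 48 h, inhibition-zone diameter recorded in mm and transparency graded A (transparent) to E (opaque).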

[2] = system: fluconazole resistant Candida albicans ATCC 64550; details: 24 hours; for Inhibition activity (inhibition ring mm) C. albicans ATCC 64550 GYF / Transparency of the inhibition ring C. albicans ATCC 64550 GYF: fluconazole 30 μg/ml; for Inhibition activity (inhibition ring mm) C. albicans ATCC 64550 GYM / Transparency of the inhibition ring C. albicans ATCC 64550 GYM: miconazole 0.15 μg/ml
Procedure, shortened: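 Paper disk assay on GY agar (pH 6.0) seeded with Waksman-broth-grown C. albicans ATCC 64550 (0.1% inoculum). Medium was supplemented with sub-growth-inhibitory miconazole 0.15 μg/ml or fluconazole 30 μg/ml. After 24 h, inhibition-zone diameter was measured in mm and transparency graded A–E (A most transparent, E opaque).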

[3] = system: Candida albicans ATCC 64548; details: 24 hours; for Inhibition activity (inhibition ring mm) C. albicans ATCC 64548 GYM / Transparency of the inhibition ring C. albicans ATCC 64548 GYM: miconazole 0.03 μg/ml; for Inhibition activity (inhibition ring mm) C. albicans ATCC 64548 GYF / Transparency of the inhibition ring C. albicans ATCC 64548 GYF: fluconazole 0.5 μg/ml
Procedure, shortened: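 GY agar (pH 6.0) seeded with C. albicans ATCC 64548 precultured in Waksman broth at 27° C for 40 hours, supplemented with sub-growth-inhibitory miconazole 0.03 μg/ml or fluconazole 0.5 μg/ml. Paper disk method; inhibition-zone diameter (mm) read after 24 hours, transparency graded A–E.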

SMILES | Inhibition activity (inhibition ring mm) A. niger ATCC 6275 GYF ([1]; 10 μg/8 mm disk) [mm] | Transparency of the inhibition ring A. niger ATCC 6275 GYF ([1]; 10 μg/8 mm disk) | Inhibition activity (inhibition ring mm) A. niger ATCC 6275 GYM ([1]; 10 μg/8 mm disk) [mm] | Transparency of the inhibition ring A. niger ATCC 6275 GYM ([1]; 10 μg/8 mm disk) | Inhibition activity (inhibition ring mm) A. niger ATCC 6275 GY ([1]; 50 μg/8 mm disk) [mm] | Transparency of the inhibition ring A. niger ATCC 6275 GY ([1]; 50 μg/8 mm disk) | Inhibition activity (inhibition ring mm) A. niger ATCC 6275 GYF ([1]; 50 μg/8 mm disk) [mm] | Transparency of the inhibition ring A. niger ATCC 6275 GYF ([1]; 50 μg/8 mm disk) | Inhibition activity (inhibition ring mm) A. niger ATCC 6275 GYM ([1]; 50 μg/8 mm disk) [mm] | Transparency of the inhibition ring A. niger ATCC 6275 GYM ([1]; 50 μg/8 mm disk) | Inhibition activity (inhibition ring mm) C. albicans ATCC 64550 GYF ([2]; 50 μg/8 mm disk) [mm] | Transparency of the inhibition ring C. albicans ATCC 64550 GYF ([2]; 50 μg/8 mm disk) | Inhibition activity (inhibition ring mm) C. albicans ATCC 64550 GYM ([2]; 50 μg/8 mm disk) [mm] | Transparency of the inhibition ring C. albicans ATCC 64550 GYM ([2]; 50 μg/8 mm disk) | Inhibition activity (inhibition ring mm) C. albicans ATCC 64548 GYM ([3]; 10 μg/8 mm disk) [mm] | Transparency of the inhibition ring C. albicans ATCC 64548 GYM ([3]; 10 μg/8 mm disk) | Inhibition activity (inhibition ring mm) C. albicans ATCC 64548 GYF ([3]; 50 μg/8 mm disk) [mm] | Transparency of the inhibition ring C. albicans ATCC 64548 GYF ([3]; 50 μg/8 mm disk) | Inhibition activity (inhibition ring mm) C. albicans ATCC 64548 GYM ([3]; 50 μg/8 mm disk) [mm] | Transparency of the inhibition ring C. albicans ATCC 64548 GYM ([3]; 50 μg/8 mm disk) | further results
CCCCCC(=O)OC1C(C)OC(OC2C(C)C(=O)OC(C(C)(O)C(CC)OC(=O)CCCCC)C(C)C3=C(C)CC(C)(O3)C(OC3OC(C)CC(N(C)C)C3O)C2C)CC1(C)OC (centres unmarked) [Compound 777, 4″,13-Di-O-hexanoyl-8,9-Anhydro-pseudo-erythromycin A 6,9-hemiketal] | 11 | E (Growth of test organism was inhibited 35% or less.) | 11 | E (Growth of test organism was inhibited 35% or less.) | 9 | E (Growth of test organism was inhibited 35% or less.) | 17 | D (Growth of test organism was inhibited 35% or more and 55% or less.) | 13 | B (Growth of test organism was inhibited 75% of more and 95% or less.) | 14 | A (Growth of test organism was inhibited 95% or more.) | 14 | A (Growth of test organism was inhibited 95% or more.) | 11 | D (Growth of test organism was inhibited 35% or more and 55% or less.) | 11 | D (Growth of test organism was inhibited 35% or more and 55% or less.) | 14 | A (Growth of test organism was inhibited 95% or more.) | Inhibition activity (inhibition ring mm) C. albicans ATCC 64550 GYF ([2]; 10 μg/8 mm disk): 11 mm; Transparency of the inhibition ring C. albicans ATCC 64550 GYF ([2]; 10 μg/8 mm disk): D (Growth of test organism was inhibited 35% or more and 55% or less.)
CCC(OC(=O)c1ccccc1)C(C)(O)C1OC(=O)C(C)C(OC2CC(C)(OC)C(OC(=O)c3ccccc3)C(C)O2)C(C)C(OC2OC(C)CC(N(C)C)C2O)C2(C)CC(C)=C(O2)C1C (centres unmarked) [Compound 778, 4″,13-Di-O-benzoyl-8,9-Anhydro-pseudo-erythromycin A 6,9-hemiketal] | 12 | E (Growth of test organism was inhibited 35% or less.) | 14 | E (Growth of test organism was inhibited 35% or less.) | 10 | E (Growth of test organism was inhibited 35% or less.) | 13 | D (Growth of test organism was inhibited 35% or more and 55% or less.) | 16 | A (Growth of test organism was inhibited 95% or more.) | 13 | B (Growth of test organism was inhibited 75% of more and 95% or less.) | 14 | B (Growth of test organism was inhibited 75% of more and 95% or less.) | 12 | B (Growth of test organism was inhibited 75% of more and 95% or less.) | 9 | D (Growth of test organism was inhibited 35% or more and 55% or less.) | 16 | A (Growth of test organism was inhibited 95% or more.) | Inhibition activity (inhibition ring mm) C. albicans ATCC 64550 GYF ([2]; 10 μg/8 mm disk): 10 mm; Transparency of the inhibition ring C. albicans ATCC 64550 GYF ([2]; 10 μg/8 mm disk): E (Growth of test organism was inhibited 35% or less.)
CCC(OC(=O)c1ccccc1)C(C)(O)C1OC(=O)C(C)C(OC2CC(C)(OC)C(O)C(C)O2)C(C)C(OC2OC(C)CC(N(C)C)C2O)C2(C)CC(C)=C(O2)C1C (centres unmarked) [Compound 779, 13-O -benzoyl-8,9-Anhydro-pseudoerythro-mycin A 6,9-hemiketal] | 11 | E (Growth of test organism was inhibited 35% or less.) |  |  | 11 | E (Growth of test organism was inhibited 35% or less.) | 13 | D (Growth of test organism was inhibited 35% or more and 55% or less.) | 17 | E (Growth of test organism was inhibited 35% or less.) | 10 | E (Growth of test organism was inhibited 35% or less.) | 11 | D (Growth of test organism was inhibited 35% or more and 55% or less.) | 10 | E (Growth of test organism was inhibited 35% or less.) | 9 | D (Growth of test organism was inhibited 35% or more and 55% or less.) | 15 | A (Growth of test organism was inhibited 95% or more.) | 
